The record followed here is patent US9034866B2 (Genentech, Inc., priority 2012, dated 2015).

Where two headings read alike, the source gives them in different places.

The subject of experiment [1] is p52 (NF-kB2) nuclear translocation in HeLa cells. Nature of the experiment: p52 nuclear translocation assay (non-classical NF-kB signaling), high content imaging. It is filed as cell-based. The settings on record: Homo sapiens, 100 ng/mL anti-lymphotoxin beta receptor antibody for 5 hours, read-out: p52 HeLa Transloc Assay (IC50). The method, then: (§1) (2) A second set of cell assay are used to define the selectivity of NIK inhibitors toward inhibition of classical vs. non-classical NF-kB signaling and rely on quantification of the nuclear translocation of p52 (NF-kB2) and REL-A (p65) using high content cellular imaging. For the p52 (non-classical NF-kB signaling) nuclear translocation assay, HeLa cells are treated with different concentrations of compounds (0.2% DMSO final) in medium containing 10% fetal bovine serum and then stimulated with 100 ng/mL, of an anti-lymphotoxin beta receptor antibody (R&D Systems) for 5 hours. In the REL-A nuclear translocation assay, HeLa cells are incubated with compounds (0.2% DMSO final) for 4.5 hours in medium containing 10% fetal bovine serum before stimulating them with 10 ng/mL tumor necrosis factor (TNF)-α (R&D Systems) for 30 minutes. Cells are fixed with 4% paraformaldehyde, permeabilized by adding 0.1% Triton X-100 in phosphate buffered saline, and then are incubated with either 2 ug/mL anti-p52 antibody (Millipore) or 400 ng/mL anti-REL-A (p65) antibody (Santa Cruz Biotechnology). Finally, the cells are incubated with an Alexa488-labeled secondary antibody (Invitrogen) and DRAQ5 DNA stain (Biostatus). Imaging is carried out using an Opera reader (Perkin Elmer) and data are analyzed with the aid of Acapella software (Perkin Elmer). The p52 or REL-A translocation into the nucleus is quantified by the ratio of the nuclear to cytoplasmic signal intensity. […] The compounds in listed in Table 1 have the corresponding inhibitory value (IC50 in micromolar) for NIK p52 Translocation Assay as set forth in Table 2.

Experiment [2] has as its system REL-A (p65) nuclear translocation in HeLa cells. Nature of the experiment: REL-A nuclear translocation assay (classical NF-kB signaling), high content imaging. In kind it is cell-based. The conditions noted are these: Homo sapiens, compounds 4.5 hours, then 10 ng/mL TNF-α for 30 minutes, read-out: REL-A HeLa Transloc Assay (IC50). The method, then: as §1
The compounds in listed in Table 1 has the corresponding inhibitory value (IC50 in micromolar) for NIK RelA Translocation Assay as set forth in Table 2.

On to `CN1CC[C@@](O)(C#Cc2cc3c(cc2F)C2CC(C2)n2cc(C(N)=O)nc2-3)C1=O` [Example 300], for which the IC50 (commonly the concentration needed to halve the response being measured) in experiment [1] (HeLa, 5 h) was 3 µM; in experiment [2] (HeLa), > 20 µM.
Turning to `Cn1nccc1C(O)c1c(C(N)=O)nc2n1C1CC(C1)c1cc(F)c(C#CC3(O)CCCC3)cc1-2` (centres unmarked) [Example 304, 9-fluoro-10-[2-(1-hydroxycyclopen-tyl)ethynyl]-3-[hydroxy-(2-methylpyrazol-3-yl)methyl]-5,6,7,12-tetrahydro-5,7-meth-anobenzo[c]imidazo[1,2-a]azepine-2-car-boxamide], the IC50 in experiment [1] (HeLa, 5 h) was 1.1 µM; in experiment [2] (HeLa) it was > 20 µM.
For the molecule `CN1CC[C@@](O)(C#Cc2ccc3c(c2)-c2nc(C(N)=O)c(Cc4ccccc4Cl)n2C2CC3C2)C1=O` [Example 308], the IC50 in experiment [1] (HeLa, 5 h) is 1.5 µM; in experiment [2] (HeLa), 20 µM.
With `Cc1c(C(N)=O)nc2n1C1CC(C1)c1cc(F)c(C#C[C@]3(O)CCN(C)C3=O)cc1-2` [Example 331, 9-fluoro-10-[2-[(3R)-3-hydroxy-1-meth-yl-2-oxo-pyrrolidin-3-yl]ethynyl]-3-meth-yl-5,6,7,12-tetrahydro-5,7-methano-benzo[c]imidazo[1,2-a]azepine-2-carboxamide], the IC50 is 1 µM in experiment [1] (HeLa, 5 h) and > 20 µM in experiment [2] (HeLa).
Take `CN1CC[C@@](O)(C#Cc2cc3c(cc2F)C2CC(C2)n2c-3nc(C(N)=O)c2C2CC2)C1=O` [Example 333, 3-cyclopropyl-9-fluoro-10-[2-[(3R)-3-hy-droxy-1-methyl-2-oxo-pyrrolidin-3-yl]ethynyl]-5,6,7,12-tetrahydro-5,7-meth-anobenzo[c]imidazo[1,2-a]azepine-2-carboxamide]: the IC50 in experiment [1] (HeLa, 5 h) is 2.2 µM; in experiment [2] (HeLa) it was > 20 µM.
For the molecule `NC(=O)c1nc2n(c1C1CC1)C1CC(C1)c1cc(F)c(C#C[C@]3(O)CCNC3=O)cc1-2` [Example 338, 3-cyclopropyl-9-fluoro-10-[2-[(3R)-3-hy-droxy-2-oxo-pyrrolidin-3-yl]ethynyl]-5,6,7,12-tetrahydro-5,7-methano-benzo[c]imidazo[1,2-a]azepine-2-carboxamide], the IC50 in experiment [1] (HeLa, 5 h) was 3 µM; in experiment [2] (HeLa), > 20 µM.
As to `CNC(=O)c1c(C(N)=O)nc2n1C1CC(C1)c1ccc(C#CC3(O)CCC3)cc1-2` [Example 361, 10-[2-(1-hydroxycyclobutyl)ethynyl]-N3-methyl-5,6,7,12-tetrahydro-5,7-meth-anobenzo[c]imidazo[1,2-a]azepine-2,3-dicarboxamide], the IC50 was 0.409 µM in experiment [1] (HeLa, 5 h) and > 20 µM in experiment [2] (HeLa).
As to `CNC(=O)c1c(C(N)=O)nc2n1CCOc1cc(F)c(C#CC3(O)CCC3)cc1-2` [Example 362, 9-fluoro-10-[2-(1-hydroxycyclobutyl)ethy-nyl]-N3-methyl-5,6-dihydroimidazo[1,2-d][1,4]benzoxazepine-2,3-dicarbox-amide], the IC50 in experiment [1] (HeLa, 5 h) was 0.143 µM; in experiment [2] (HeLa) it was > 20 µM.
For the molecule `Cc1cc([C@](C)(O)C#Cc2cc3c(cc2F)C2CC(C2)n2c-3nc(C(N)=O)c2CNC(=O)C2CC2)no1` [Example 363], the values for the 50% inhibitory concentration (IC50) in experiment [1] and in experiment [2] were 0.66 µM and > 20 µM, respectively.
For the molecule `NC(=O)c1cn2c(n1)-c1cc(C#CC3(O)CCC3)c(F)cc1C1CC2C1` [Example 364, 9-fluoro-10-[2-(1-hydroxycyclobutyl)ethy-nyl]-5,6,7,12-tetrahydro-5,7-methano-benzo[c]imidazo[1,2-a]azepine-2-carboxamide], the IC50 was 0.985 µM in experiment [1] (HeLa, 5 h) and > 20 µM in experiment [2] (HeLa).
Take `CNC(=O)c1c(C(N)=O)nc2n1C1CC(C1)c1cc(F)c(C#CC3(O)CCC3)cc1-2` [Example 368, 9-fluoro-10-[2-(1-hydroxycyclobutyl)ethy-nyl]-N3-methyl-5,6,7,12-tetrahydro-5,7-methanobenzo[c]imidazo[1,2-a]azepine-2,3-dicarboxamide]: the IC50 in experiment [1] (HeLa, 5 h) is 0.342 µM; in experiment [2] (HeLa), > 20 µM.
Consider `NC(=O)c1cn2c(n1)-c1cc(C#CC3(O)CCC3)ccc1C1CC2C1` [Example 369, 10-[2-(1-hydroxycyclobutyl)ethynyl]-5,6,7,12-tetrahydro-5,7-methanobenzo[c]imi-dazo[1,2-a]azepine-2-carboxamide], for which the IC50 is 3.7 µM in experiment [1] and > 20 µM in experiment [2].
Turning to `CC(=O)N(Cc1c(C(N)=O)nc2n1C1CC(C1)c1cc(F)c(C#CC(C)(C)O)cc1-2)C(C)C` [Example 371, 3-[[acetyl(isopropyl)amino]methyl]-9-fluoro-10-(3-hydroxy-3-methyl-but-1-ynyl)-5,6,7,12-tetrahydro-5,7-methano-benzo[c]imidazo[1,2-a]azepine-2-carboxamide], the IC50 is 1.9 µM in experiment [1] (HeLa, 5 h) and > 20 µM in experiment [2] (HeLa).
Regarding `CC(C)(O)C#Cc1ccc2c(c1)-c1nc(C(N)=O)c(-c3nnc(C4CC4)s3)n1C1CC2C1` [Example 390, 9-fluoro-10-(3-hydroxy-3-methyl-but-1-ynyl)-3-(trifluoromethyl)-5,6,7,12-tetrahydro-5,7-methanobenzo[c]imidazo[1,2-a]azepine-2-carboxamide], the half-maximal inhibitory concentration (IC50) is 1.5 µM in experiment [1] (HeLa, 5 h) and 9.5 µM in experiment [2] (HeLa).
Consider `CN1CC[C@@](O)(C#Cc2ccc3c(c2)-c2nc(C(N)=O)sc2C(F)(F)CO3)C1=O` [Example 406, 10-[(3R)-3-hydroxy-3-(5-methylisoxazol-3-yl)but-1-ynyl]-N3,N3-dimethyl-5,6,7,12-tetrahydro-5,7-methanobenzo[c]imidazo[1,2-a]azepine-2,3-dicarboxamide], for which the IC50 was 0.0761 µM in experiment [1] (HeLa, 5 h) and > 20 µM in experiment [2] (HeLa).
For the molecule `CC(C)(O)C#Cc1cc2c(cc1F)C1CC(C1)c1c-2nc(C(N)=O)n1C(F)F` [Example 411, 9-fluoro-10-(3-hydroxy-3-methyl-but-1-ynyl)-3-(pyrrolidin-1-ylmethyl)-5,6,7,12-tetrahydro-5,7-methanobenzo[c]imidazo[1,2-a]azepine-2-carboxamide], the IC50 worked out at 0.0732 µM in experiment [1] (HeLa, 5 h) and 20 µM in experiment [2] (HeLa).
Consider `Cc1cc([C@](C)(O)C#Cc2ccc3c(c2)-c2nc(C(N)=O)c(Cn4c(C)nc5ccccc54)n2CCO3)no1` [Example 415, 9-fluoro-10-(3-hydroxy-3-methyl-but-1-ynyl)-3-[(2-methoxyethylamino)methyl]-5,6,7,12-tetrahydro-5,7-methanobenzo[c]imidazo[1,2-a]azepine-2-carboxamide], for which the IC50 in experiment [1] (HeLa, 5 h) was 0.979 µM; in experiment [2] (HeLa), > 20 µM.
With `Cc1nc2ccccc2n1Cc1c(C(N)=O)nc2n1CCOc1ccc(C#C[C@]3(O)CCN(C)C3=O)cc1-2` [Example 416, 9-fluoro-10-[(3R)-3-hydroxy-3-(5-methylisoxazol-3-yl)but-1-ynyl]-3-[1-(2-hydroxy-2-methyl-propyl)pyrazol-4-yl]-5,6,7,12-tetrahydro-5,7-methanobenzo[c]imidazo[1,2-a]azepine-2-carboxamide], the IC50 in experiment [1] (HeLa, 5 h) is 3.2 µM; in experiment [2] (HeLa) it was > 20 µM.
In the same order, the values of `CN1CC[C@@](O)(C#Cc2cc3c(cc2F)OCCn2c-3nc(C(N)=O)c2C2CC2)C1=O` [Example 418, 9-fluoro-10-(3-hydroxy-3-methyl-but-1-ynyl)-3-[[2-methoxyethyl(methyl)amino]methyl]-5,6,7,12-tetrahydro-5,7-methanobenzo[c]imidazo[1,2-a]azepine-2-carboxamide] are 0.515 µM and > 20 µM.
In the same order, the values of `CN1CC[C@@](O)(C#Cc2ccc3c(c2)-c2nc(C(N)=O)c(C(=O)NC4CCOCC4)n2CCO3)C1=O` [Example 422, 9-fluoro-10-(3-hydroxy-3-methyl-but-1-ynyl)-3-(1-hydroxy-1-methyl-ethyl)-5,6,7,12-tetrahydro-5,7-methanobenzo[c]imidazo[1,2-a]azepine-2-carboxamide] are 0.406 µM and > 20 µM.
As to `Cc1cc([C@](C)(O)C#Cc2ccc3c(c2)-c2nc(C(N)=O)c(CN4CCCC4)n2C2CC3C2)no1` [Example 424, 10-(3-hydroxy-3-methyl-but-1-ynyl)-N3-methyl-5,6,7,12-tetrahydro-5,7-methanobenzo[c]imidazo[1,2-a]azepine-2,3-dicarboxamide], the IC50 in experiment [1] (HeLa, 5 h) is 3.2 µM; in experiment [2] (HeLa), > 20 µM.
`Cn1c(C(N)=O)nc2c1C1CC(C1)c1ccc(C#C[C@@](C)(O)c3ncccn3)cc1-2` [Example 427, 9-fluoro-10-(3-hydroxy-3-methyl-but-1-ynyl)-N3-methyl-5,6,7,12-tetrahydro-5,7-methanobenzo[c]imidazo[1,2-a]azepine-2,3-dicarboxamide]: the IC50 in experiment [1] (HeLa, 5 h) is 0.453 µM; in experiment [2] (HeLa) it was > 20 µM.
